According to patent US12264173B2 (GILEAD SCIENCES, INC., priority 2020, dated 2025):
Where two headings read alike, the source gives them in different places.

Assays:
Assay type in all cases: cell-based
HRV16 = HRV16 HeLa EC50 (cytopathic effect in H1-HeLa cells)
In short: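 Read-out is luminescent cell viability (CellTiter-Glo) after 96 h of infection at 33 °C, scaled between uninfected and infected-untreated wells. Before infection with titrated virus, compounds went onto H1-HeLa cells as triplicate 3-fold dilution series.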

[1] = tested on: Dengue 2, New Guinea strain (NGC); assay: DENV moDC EC50 (qPCR in human monocyte-derived dendritic cells); details: Table 3, human moDCs, 48 hours
Protocol: Human monocyte-derived dendritic cells (moDCs) were derived from CD14+ monocytes (AllCells) cultured in Human Mo-DC Differentiation medium containing GM-CSF and IL-4 (Miltenyi Biotec). On day 7, moDCs were harvested by mechanical disruption, washed and suspended in serum-free RPMI. moDCs were infected with Vero-derived Dengue 2, New Guinea strain (NGC) at a MOI=0.1 for two hours in serum-free RPMI with gentle agitation at 37° C. Cells were washed and resuspended in 10% serum-containing RPMI (Gibco, supplemented with sodium pyruvate, NEAA, Penicillin-Streptomycin). […] were plated in triplicate in 96-well plates with compounds dispensed at graded doses (Hewlett-Packard D300 Digital Dispenser). All wells were normalized to 0.25% DMSO. At 48 hours, cells were washed with 1×PBS and all supernatants removed. Total RNA was extracted using RNEasy 96 plates (Qiagen) and used to generate first-strand cDNA using XLT cDNA 5× Supermix (QuantaBio). cDNA was used as a template in a Taqman qPCR duplex reaction specific to DENV2 viral and GAPDH gene expression. EC50 values were determined using Prism Graphpad software, with normalization to a positive control and no compound negative control wells.

HCV Rep 1B = HCV Rep 1B EC50 (replicon luciferase)
Protocol: (§1) Compounds were serially diluted in ten steps of 1:3 dilutions in 384-well plates. All serial dilutions were performed in four replicates per compound within the same 384-well plate. […] To each well of a black polystyrene 384-well plate (Greiner Bio-one, Monroe, NC), 90 μL of cell culture medium (without Geneticin) containing 2000 suspended HCV replicon cells was added with a Biotek μFlow workstation. For compound transfer into cell culture plates, 0.4 μL of compound solution from the compound serial dilution plate was transferred to the cell culture plate on a Biomek FX workstation. The DMSO concentration in the final assay wells was 0.44%. The plates were incubated for 3 days at 37° C. with 5% CO2 and 85% humidity. The HCV replicon assay was a multiplex assay, able to assess both cytotoxicity and antireplicon activity from the same well. The CC50 assay was performed first. The media in the 384-well cell culture plate was aspirated, and the wells were washed four times with 100 μL of PBS each, using a Biotek ELX405 plate washer. A volume of 50 μL of a solution containing 400 nM calcein AM (Anaspec, Fremont, CA) in 1×PBS was added to each well of the plate with a Biotek μFlow workstation. The plate was incubated for 30 min at room temperature before the fluorescence signal (excitation 490 nm, emission 520 nm) was measured with a Perkin-Elmer Envision plate reader. The EC50 assay was performed in the same wells as the CC50 assay. The calcein-PBS solution in the 384-well cell culture plate was aspirated with a Biotek ELX405 plate washer. A volume of 20 μL of Dual-Glo luciferase buffer (Promega, Madison, WI) was added to each well of the plate with a Biotek μFlow Workstation. The plate was incubated for 10 min at room temperature. A volume of 20 μL of a solution containing a 1:100 mixture of Dual-Glo Stop & Glo substrate (Promega, Madison, WI) and Dual-Glo Stop & Glo buffer (Promega, Madison, WI) was added to each well of the plate with a Biotek μFlow Workstation. The plate was then incubated at room temperature for 10 min before the luminescence signal was measured with a Perkin-Elmer Envision Plate Reader.

[2] = tested on: Dengue serotype 2 New Guinea C (NGC) strain; assay: DENV-2 Huh-7 EC50 (qPCR in Huh7 cells)
Protocol: Huh7 (Human hepatocarcinoma 7) cells were maintained in 10% FCS-containing DMEM complete media. On the day of the assay, cells were trypsinized (0.1% Trypsin-EDTA), washed and infected for 2 hours in serum-free DMEM with Dengue serotype 2 New Guinea C (NGC) strain at MOI=0.1 with gentle agitation at 37° C. After 2 hours, cells were washed with serum-free media and suspended in 10% FCS-containing DMEM (Gibco, supplemented with sodium pyruvate, NEAA, Penicillin-Streptomycin). 10^5 cells were plated in triplicate in 96-well plates with compounds dispensed at graded doses (Hewlett-Packard D300 Digital Dispenser). All wells were normalized to 0.25% DMSO. At 48 hours, cells were washed with 1×PBS and all supernatants removed. Total RNA was extracted using RNEasy 96 plates (Qiagen) and used to generate first-strand cDNA using XLT cDNA 5× Supermix (QuantaBio). cDNA was used as a template in a Taqman qPCR duplex reaction specific to DENV2 viral and GAPDH gene expression. EC50 values were determined using Prism Graphpad software, with normalization to a positive control and no compound negative control wells.

HCV Rep 2A = HCV Rep 2A EC50 (replicon luciferase)
Protocol: as §1

[3] = 96 h, Table 3, H1-HeLa cells, 96 h, read-out: HRV16 HeLa EC50
[4] = HeLa, read-out: HRV16 HeLa EC50, Table 5 comparative activity, 2',3'-OH vs -OC(O)iPr
[5] = Hepatitis C virus, 72 h, Table 4, replicon cells, 3 days, read-out: HCV Rep 1B EC50
[6] = Dengue virus, DENV2, Huh-7, Table 3, Huh7 cells, 48 hours, read-out: DENV-2 Huh7 EC50
[7] = Dengue virus, Huh-7, read-out: DENV Huh7 EC50
[8] = Hepatitis C virus, 72 h, Table 4, replicon cells, 3 days, read-out: HCV Rep 2A EC50
[9] = Table 3, H1-HeLa cells, 96 h, read-out: HRV16 HeLa EC50
[10] = Table 3, Huh7 cells, 48 hours, read-out: DENV-2 Huh7 EC50
[11] = Table 4, replicon cells, 3 days, read-out: HCV Rep 1B EC50
[12] = Table 4, replicon cells, 3 days, read-out: HCV Rep 2A EC50

| SMILES | EC50 (HRV16; [3]) [nM] | EC50 ([1]; Dengue virus, Dendritic cell) [nM] | EC50 (HCV Rep 1B; [5]) [nM] | EC50 [2, 6] [nM] | EC50 (HCV Rep 2A; [8]) [nM] | EC50 (HRV16; [9]) [nM] | also measured |
| --- | --- | --- | --- | --- | --- | --- | --- |
| COC(=O)[C@H](C)N[P@](=O)(OC[C@@]1(C#N)O[C@@H](c2ccc3c(N)ncnn23)[C@H](OC(=O)C(C)C)[C@@H]1OC(=O)C(C)C)Oc1ccccc1 (single isomer, unassigned) [Example 140] | 83 | 90 | 369 | 1220 | 542 |  | EC50 (HRV16; [4]): 83 nM; EC50 (HCV Rep 1B; Hepatitis C virus, read-out: HCV Rep1B EC50): 368 nM; EC50 [2, 7]: 1210 nM; EC50 (HCV Rep 2A; Hepatitis C virus, read-out: HCV Rep2A EC50): 542 nM |
| CCC(=O)O[C@H]1[C@H](c2ccc3c(N)ncnn23)O[C@](C#N)(CO[P@@](=O)(N[C@@H](C)C(=O)OC)Oc2ccccc2)[C@H]1OC(=O)CC (single isomer, unassigned) [Example 143] | 221 | 164 |  | 3130 |  |  |  |
| CCOC(=O)[C@H](C)N[P@](=O)(OC[C@@]1(C#N)O[C@@H](c2ccc3c(N)ncnn23)[C@H](OC(=O)C(C)C)[C@@H]1OC(=O)C(C)C)Oc1ccccc1 (single isomer, unassigned) [Example 144] | 93 | 31 | 442 | 1180 | 1270 |  | EC50 (HRV16; [4]): 92 nM; EC50 [2, 7]: 1280 nM |
| CC(C)C(=O)O[C@H]1[C@H](c2ccc3c(N)ncnn23)O[C@](C#N)(COP(=O)(N[C@@H](C)C(=O)OCC2CCOCC2)Oc2ccccc2)[C@H]1OC(=O)C(C)C (single isomer, unassigned) [Example 183] |  |  |  |  |  | 88 | EC50 [1]: 142 nM; EC50 [2, 10]: 1110 nM |
| CC(C)C(=O)O[C@H]1[C@H](c2ccc3c(N)ncnn23)O[C@](C#N)(COP(=O)(N[C@@H](C)C(=O)OC2COC2)Oc2ccccc2)[C@H]1OC(=O)C(C)C (single isomer, unassigned) [Example 186] |  |  |  |  |  | 44 | EC50 (HCV Rep 1B; [11]): 306 nM; EC50 [2, 10]: 1730 nM; EC50 (HCV Rep 2A; [12]): 836 nM |
| CC(C)C(=O)O[C@H]1[C@H](c2ccc3c(N)ncnn23)O[C@](C#N)(COP(=O)(N[C@@H](C)C(=O)OCC2COC2)Oc2ccccc2)[C@H]1OC(=O)C(C)C (single isomer, unassigned) [Example 201] |  |  |  |  |  | 177 | EC50 [1]: 57 nM; EC50 [2, 10]: 317 nM |
| CCC(CC)COC(=O)[C@H](C)N[P@](=O)(OC[C@@]1(C#N)O[C@@H](c2ccc3c(N)ncnn23)C(OC(=O)C(C)C)[C@@H]1OC(=O)C(C)C)Oc1ccccc1 (stereo in doubt) [Example 86, (2R,3S,4R,5S)-5-(4-aminopyrrolo[2,1-f][1,2,4]triazin-7-yl)-2-cyano-2-((((S)-(((S)-1-(2-ethylbutoxy)-1-oxopropan-2-yl)amino)(phenoxy)phosphoryl)oxy)methyl) tetrahydrofuran-3,4-diyl bis(2-methylpropanoate)] | 192 | 239 | 929 | 1410 | 1480 |  |  |
| CC(C)C(=O)O[C@H]1[C@H](c2ccc3c(N)ncnn23)O[C@](C#N)(CO[P@@](=O)(N[C@@H](C)C(=O)OC2CCCCC2)Oc2ccccc2)[C@H]1OC(=O)C(C)C [Example 77, (2R,3S,4S,5S)-5-(4-aminopyrrolo[2,1-f][1,2,4]triazin-7-yl)-2-cyano-2-((((S)-(((S)-1-(cyclohexyloxy)-1-oxopropan-2-yl)amino)(phenoxy)phosphoryl)oxy)methyl) tetrahydrofuran-3,4-diyl bis(2-methylpropanoate)] | 152 | 185 | 608 | 1490 | 936 |  |  |
| CCC(=O)O[C@H]1[C@H](c2ccc3c(N)ncnn23)O[C@](C#N)(CO[P@@](=O)(N[C@@H](C)C(=O)OC2CCCCC2)Oc2ccccc2)[C@H]1OC(=O)CC [Example 82, (2R,3S,4S,5S)-5-(4-aminopyrrolo[2,1-f][1,2,4]triazin-7-yl)-2-cyano-2-((((S)-(((S)-1-(cyclohexyloxy)-1-oxopropan-2-yl)amino)(phenoxy)phosphoryl)oxy)methyl) tetrahydrofuran-3,4-diyl dipropionate] | 201 | 786 | 359 | 3980 | 813 |  |  |
| CCC(=O)O[C@H]1[C@H](c2ccc3c(N)ncnn23)O[C@](C#N)(CO[P@@](=O)(N[C@@H](C)C(=O)OC(C)C)Oc2ccccc2)[C@H]1OC(=O)CC [Example 90, (2R,3S,4S,5S)-5-(4-Aminopyrrolo[2,1-f][1,2,4]triazin-7-yl)-2-cyano-2-((((S)-(((S)-1-isopropoxy-1-oxopropan-2-yl)amino)(phenoxy)phosphoryl)oxy)methyl) tetrahydrofuran-3,4-diyl dipropionate] | 259 | 677 | 579 | 2160 | 1140 |  |  |
| CCC(=O)O[C@H]1[C@H](c2ccc3c(N)ncnn23)O[C@](C#N)(CO[P@@](=O)(N[C@@H](C)C(=O)OCC2CC2)Oc2ccccc2)[C@H]1OC(=O)CC [Example 99] |  |  |  |  |  | 116 | EC50 (HCV Rep 1B; [11]): 313 nM; EC50 (HCV Rep 2A; [12]): 599 nM |
| COC(=O)[C@H](C)N[P@](=O)(OC[C@@]1(C#N)O[C@@H](c2ccc3c(=N)n(COP(=O)(O)O)cnn23)[C@H](OC(=O)C(C)C)[C@@H]1OC(=O)C(C)C)Oc1ccccc1 [Example 259, (2R,3S,4S,5S)-2-cyano-5-(4-imino-3-((phosphonooxy)methyl)-3,4-dihydropyrrolo[2,1-f][1,2,4]triazin-7-yl)-2-((((S)-(((S)-1-methoxy-1-oxopropan-2-yl)amino)(phenoxy)phosphoryl)oxy)methyl)tetrahydrofuran-3,4-diyl bis(2-methylpropanoate)] |  |  | 1120 | 1860 | 2080 |  |  |
